One assay has as its target T1, Aurora kinase A (Homo sapiens, UniProt O14965).
T1 sequence (O14965 whole entry): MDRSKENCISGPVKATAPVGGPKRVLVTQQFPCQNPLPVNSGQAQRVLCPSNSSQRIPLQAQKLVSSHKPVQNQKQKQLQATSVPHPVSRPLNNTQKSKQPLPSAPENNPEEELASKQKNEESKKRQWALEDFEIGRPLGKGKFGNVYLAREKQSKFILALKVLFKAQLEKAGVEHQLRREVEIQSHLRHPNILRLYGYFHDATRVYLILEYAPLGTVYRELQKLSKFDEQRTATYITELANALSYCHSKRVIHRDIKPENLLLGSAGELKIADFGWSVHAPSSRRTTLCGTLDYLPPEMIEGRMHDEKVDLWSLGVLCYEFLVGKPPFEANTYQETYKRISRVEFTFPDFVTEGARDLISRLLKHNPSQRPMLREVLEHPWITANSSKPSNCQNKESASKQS
The experiment in a line: Inhibition of Aurora A (unknown origin) using FAM-labeled peptide as substrate preincubated for 10 mins followed by substrate addition measured after 60 mins.

Another assay relates to A549. The experiment in a line: Antiproliferative activity against human A549 cells assessed as cell viability after 72 hrs by CCK8 assay. Type of assay: functional, cell-based. Particulars: A549, 72 h; call rule not given here.
A further assay deals with HeLa. The assay is described as follows: Antiproliferative activity against human HeLa cells assessed as cell viability after 72 hrs by CCK8 assay. It is filed as functional, cell-based. Particulars: for pIC50: Homo sapiens, HeLa, 72 h, read-out: IC50.
A further assay has as its system MDA-MB-231. The experiment in a line: Antiproliferative activity against human MDA-MB-231 cells assessed as cell viability after 72 hrs by CCK8 assay. Type of assay: functional, cell-based. To be noted: for pIC50: Homo sapiens, MDA-MB-231, 72 h, read-out: IC50. (Tetrazolium dyes change colour on reduction, which living cells bring about.)
In a further assay the test system is A-431. The assay is described as follows: Antiproliferative activity against human A431 cells assessed as cell viability after 72 hrs by CCK8 assay. It is filed as functional, cell-based. Particulars: for pIC50: Homo sapiens, A-431, 72 h, read-out: IC50.
Another assay relates to HL-60. The experiment in a line: Antiproliferative activity against human HL60 cells assessed as cell viability after 72 hrs by CCK8 assay. Particulars: for pIC50: Homo sapiens, HL-60, 72 h, read-out: IC50. Type of assay: functional, cell-based.
A short description of assay [1]: Antiproliferative activity against human MOLT4 cells assessed as cell viability after 72 hrs by CCK8 assay. To be noted: for pIC50: Homo sapiens, MOLT-4, 72 h, read-out: IC50. Type of assay: functional, cell-based, MOLT-4.
Another assay has as its system K562. The experiment in a line: Antiproliferative activity against human K562 cells assessed as cell viability after 72 hrs by CCK8 assay. Type of assay: functional, cell-based. To be noted: for pIC50: Homo sapiens, K562, 72 h, read-out: IC50.
A further assay deals with NCI-N87. The assay is described as follows: Antiproliferative activity against human NCI-N87 cells assessed as cell viability after 72 hrs by CCK8 assay. It is filed as functional, cell-based. Particulars: for pIC50: Homo sapiens, NCI-N87, 72 h, read-out: IC50.
For another assay, the system named is HCT-116. The experiment in a line: Antiproliferative activity against human HCT116 cells assessed as cell viability after 72 hrs by CCK8 assay. Type of assay: functional, cell-based. To be noted: for pIC50: Homo sapiens, HCT-116, 72 h, read-out: IC50.
The test system of the next assay is PC-3. The assay is described as follows: Antiproliferative activity against human PC3 cells assessed as cell viability after 72 hrs by CCK8 assay. Type of assay: functional, cell-based. To be noted: for pIC50: Homo sapiens, PC-3, 72 h, read-out: IC50.
Assay [2] can be described thus: Antiproliferative activity against human PANC1 cells assessed as cell viability after 72 hrs by CCK8 assay. Type of assay: functional, cell-based. To be noted: PANC-1, 72 h.
The nature of assay [3]: Antiproliferative activity against human SKBR3 cells assessed as cell viability after 72 hrs by CCK8 assay. Particulars: for pIC50: Homo sapiens, SK-BR-3, 72 h, read-out: IC50. Type of assay: functional, cell-based, SK-BR-3.
A further assay concerns MCF7. The assay is described as follows: Antiproliferative activity against human MCF7 cells assessed as cell viability after 72 hrs by CCK8 assay. To be noted: for pIC50: Homo sapiens, MCF7, 72 h, read-out: IC50. It is filed as functional, cell-based.
Another assay relates to DU-145. The assay is described as follows: Antiproliferative activity against human DU145 cells assessed as cell viability after 72 hrs by CCK8 assay. It is filed as functional, cell-based. To be noted: for pIC50: Homo sapiens, DU-145, 72 h, read-out: IC50.
Another assay relates to U-937. The experiment in a line: Antiproliferative activity against human U937 cells assessed as cell viability after 72 hrs by CCK8 assay. It is filed as functional, cell-based. To be noted: for pIC50: Homo sapiens, U-937, 72 h, read-out: IC50.

pIC50: −log10 of the molar value.

One may read the pIC50 as −log10 of the IC50, conventionally taken in molar units. `COC(=O)c1ccc(Nc2nc(Nc3cc(C)[nH]n3)cc(N3CCN(S(=O)(=O)c4ccc(C)cc4)CC3)n2)cc1` had a pIC50 against Aurora kinase A of 6.24.
Take `Cc1cc(Nc2cc(N3CCN(C)CC3)nc(Nc3cccc([N+](=O)[O-])c3)n2)n[nH]1`: the pIC50 is 6.03 with A549; 5.95 in the assay with HeLa; 6.94 with MDA-MB-231; 6.78 in the assay with A-431; 7.04 in the assay with HL-60; 7.59 in assay [1]. Further, the pIC50 was 7.80 against Aurora kinase A; 6.86 with K562; 5.36 with NCI-N87; 5.74 in the assay with HCT-116; 6.02 with PC-3; 6.34 in assay [2]. For the same compound, the pIC50 is 5.66 in assay [3], 6.19 in the assay with MCF7, 5.87 in the assay on DU-145 and 7.60 with U-937.
With `Cc1cc(Nc2cc(N3CCN(C)CC3)nc(Nc3ccc([N+](=O)[O-])cc3)n2)n[nH]1`, the pIC50 in the assay on A549 is 6.14; with HeLa, 6.48; in the assay with MDA-MB-231, 7.07; in the assay with A-431, 6.82; with HL-60, 7.16; in [1], 7.74. The pIC50 against Aurora kinase A is 7.92; in the assay on K562, 6.86; in the assay on NCI-N87, 5.41; in the assay on HCT-116, 5.79; in the assay with PC-3, 5.96; in [2] it was 6.35. Also, the pIC50 in [3] is 6.36; in the assay with MCF7, 6.37; in the assay with DU-145, 5.92; in the assay on U-937, 7.36.
In turn, `Cc1cc(Nc2cc(N3CCN(C)CC3)nc(Nc3ccc(N4CCOCC4)cc3)n2)n[nH]1` had a pIC50 against Aurora kinase A of 6.95.
Consider `Cc1cc(Nc2cc(N3CCN(C)CC3)nc(Nc3ccc(S(N)(=O)=O)cc3)n2)n[nH]1`, for which the pIC50 in the assay on A549 is 4.78; in the assay with HeLa, 5.51; in the assay with MDA-MB-231 it was 5.92; in the assay on A-431 it was 5.56; in the assay with HL-60, 6.67; in [1], 6.19. Moreover, the pIC50 was 8.30 at Aurora kinase A; 5.84 in the assay with K562; 4.62 in the assay on NCI-N87; 4.91 in the assay with HCT-116; 5.36 in the assay with PC-3; 5.06 in [2]. Moreover, the pIC50 in assay [3] was 4.80; with MCF7, 5.57; in the assay on DU-145, 6.03; in the assay on U-937, 7.00.
`Cc1cc(Nc2cc(N3CCN(C)CC3)nc(Nc3ccc(C#N)cc3)n2)n[nH]1`: the pIC50 in the assay on A549 was 6.11; in the assay on HeLa, 6.48; in the assay on MDA-MB-231, 7.12; in the assay on A-431, 6.85; with HL-60, 7.66; in assay [1] it was 7.87. Further, the pIC50 against Aurora kinase A is 8.10; in the assay on K562, 7.24; with NCI-N87 it was 5.24; in the assay with HCT-116, 6.19; in the assay on PC-3, 6.01; in assay [2], 6.36. The pIC50 is 6.05 in assay [3], 6.43 in the assay on MCF7, 5.90 in the assay on DU-145 and 8.04 in the assay with U-937.
The compound `Cc1cc(Nc2cc(N3CCN(C)CC3)nc(Nc3ccccc3Cl)n2)n[nH]1` showed a pIC50 against Aurora kinase A of 6.83.
The same measure, in the same setting: the value for `COC(=O)c1ccc(Nc2nc(NCCN3CCOCC3)cc(Nc3cc(C)[nH]n3)n2)cc1` was 7.14.
On the same count and under the same terms, the value for `COC(=O)c1ccc(Nc2nc(Nc3cc(C)[nH]n3)cc(N3C[C@@H](C)O[C@@H](C)C3)n2)cc1` was 6.95.
As for `COC(=O)c1ccc(Nc2nc(Nc3cc(C)[nH]n3)cc(N3CCN(S(C)(=O)=O)CC3)n2)cc1`, the pIC50 in the assay with A549 is 5.76; with HeLa, 5.77; with MDA-MB-231, 6.15; in the assay with A-431, 5.79; with HL-60, 6.22; in assay [1] it was 6.67. In addition, the negative-log IC50 (pIC50) was 7.47 on Aurora kinase A; 6.25 with K562; 4.96 in the assay on NCI-N87; 5.91 in the assay with HCT-116; 5.69 in the assay on PC-3; 5.91 in assay [2]. For the same compound, the pIC50 is 5.23 in [3], 5.70 with MCF7, 6.10 in the assay on DU-145 and 6.63 in the assay on U-937.
For the compound `Cc1cc(Nc2cc(N3CCN(C)CC3)nc(Nc3ccc(Cl)cc3)n2)n[nH]1`, the pIC50 is 6.20 in the assay on A549; 6.21 with HeLa; 6.86 in the assay on MDA-MB-231; 6.79 in the assay with A-431; 7.08 in the assay on HL-60; 7.27 in assay [1]. Moreover, the pIC50 against Aurora kinase A is 7.89; in the assay with K562, 6.72; in the assay on NCI-N87 it was 5.13; in the assay with HCT-116, 5.86; with PC-3, 5.83; in assay [2], 6.34. For the same compound, the pIC50 in [3] is 5.79; in the assay on MCF7 it was 6.08; in the assay on DU-145, 5.65; with U-937, 7.26.
Regarding `Cc1cc(Nc2cc(N3CCN(C)CC3)nc(Nc3ccc(N4CC(=O)N(C5CC5)CC4=O)cc3)n2)n[nH]1`, at Aurora kinase A, the pIC50 is 6.26.
Consider `Cc1cc(Nc2cc(N3CCN(C)CC3)nc(Sc3ccc(NC(=O)C4CC4)cc3)n2)n[nH]1` [TOZASERTIB], for which the pIC50 with A549 was 5.52; in the assay on HeLa it was 5.53; in the assay with MDA-MB-231, 6.90; with A-431, 6.62; in the assay with HL-60 it was 7.42; in [1], 7.67. The pIC50 in the assay with K562 was 7.10; in the assay on NCI-N87 it was 4.94; in the assay on HCT-116, 5.36; with PC-3, 5.24; in [2], 5.38; in assay [3], 5.00. The pIC50 in the assay with MCF7 is 5.89; with DU-145 it was 6.40; in the assay on U-937, 7.44.
`CNC(=O)c1ccc(Nc2nc(Nc3cc(C)[nH]n3)cc(N3CCN(C)CC3)n2)cc1`: the pIC50 on Aurora kinase A was 7.00.
The same measure, in the same setting: the same measure for `CC(=O)Nc1ccc(Nc2nc(Nc3cc(C)[nH]n3)cc(N3CCN(C)CC3)n2)cc1`: 6.93; for `COC(=O)c1ccc(Nc2nc(Nc3cc(C)[nH]n3)cc(N3CCNCC3)n2)cc1`: 6.87.
For the compound `Cc1cc(Nc2cc(N3CCN(C)CC3)nc(Nc3ccc(C(=O)O)cc3)n2)n[nH]1`, the pIC50 with A549 is 4.71; on Aurora kinase A it was 7.49; in [2], 4.41. The IC50 result (in the assay with HeLa (hela); in the assay on MDA-MB-231 (mda-mb-231); in the assay with A-431 (a-431); in the assay with HL-60 (hl-60); in assay [1] (molt-4); in the assay on K562 (k562)) was “Not Active” throughout. The IC50 result (in the assay on NCI-N87 (nci-n87); in the assay with HCT-116 (hct-116); with PC-3 (pc-3); in assay [3] (sk-br-3); in the assay with MCF7 (mcf7); in the assay with DU-145 (du-145)) was “Not Active” each time. Moreover, in the assay on U-937 (u-937), the IC50 result is “Not Active”.
In the case of `COC(=O)c1ccc(Nc2nc(NCCN3CCCCC3)cc(Nc3cc(C)[nH]n3)n2)cc1`, the pIC50 at Aurora kinase A was 6.64.
`COC(=O)c1ccc(CNc2nc(Nc3cc(C)[nH]n3)cc(N3CCOCC3)n2)cc1`: at Aurora kinase A, the pIC50 was 7.01.
Consider `COC(=O)c1ccc(Nc2nc(Nc3cc(C)[nH]n3)cc(N3CCN(C)CC3)n2)cc1Cl`, for which the pIC50 was 5.80 in the assay on A549; 6.49 with HeLa; 6.91 in the assay with MDA-MB-231; 7.08 with A-431; 6.89 in the assay on HL-60; 7.37 in [1]. Further, the pIC50 was 8.11 at Aurora kinase A; 6.86 in the assay with K562; 5.44 in the assay with NCI-N87; 5.80 with HCT-116; 5.86 with PC-3; 6.29 in [2]. Moreover, the pIC50 in assay [3] is 5.67; in the assay with MCF7, 6.09; in the assay with DU-145, 6.05; with U-937, 7.26.
